Entries after “also recorded” stand apart in the source; their conditions may differ. Where two headings read alike, the source gives them in different places.
Experiments:
huCART19 cells = experiment: CART proliferation in 4 day co-culture with Nalm-6 in presence of RAD001; format: cell-based, human
Protocol: To evaluate the functionality of CARTs, the T cells are thawed and counted, and viability is assessed by Cellometer. The number of CAR-positive cells in each culture is normalized using non-transduced T cells (UTD). The impact of RAD001 on CARTs was tested in titrations with RAD001, starting at 50 nM. The target cell line used in all co-culture experiments is Nalm-6, a human pre-B cell acute lymphoblastic leukemia (ALL) cell line expressing CD19 and transduced to express luciferase.
For measuring the proliferation of CARTs, T cells are cultured with target cells at a ratio of 1:1. The assay is run for 4 days, when cells are stained for CD3, CD4, CD8 and CAR expression. The number of T cells is assessed by flow cytometry using counting beads as reference.

[1] = RAD001 PK analysis in NSG mice with NALM6-luc tumors; format: in vivo; details: for concentration at 24 h: NSG, mouse
Protocol: (§1) A concentrated micro-emulsion of 50 mg equal to 1 mg RAD001 was formulated and then resuspended in D5W (dextrose 5% in water) at the time of dosing. Mice were orally dosed daily (via oral gavage) with 200 μl of the desired doses of RAD001.
Mice were dosed daily with RAD001 starting 7 days post tumor implantation. Dosing groups were as follows: 0.3 mg/kg, 1 mg/kg, 3 mg/kg, and 10 mg/kg. Mice were bled on days 0 and 14 following the first and last dose of RAD001, at the following time points for PK analysis: 15 minutes, 30 minutes, 1 hour, 2 hours, 4 hours, 8 hours, 12 hours, and 24 hours.

[2] = tested on: CAR-positive CD3-positive T cells co-cultured with Nalm-6 cells; experiment: CART proliferation in co-culture with Nalm-6 cells with RAD001; format: cell-based; details: low doses of RAD001, 4 days of co-culture with Nalm-6
Protocol: CARTs were co-cultured with Nalm-6 cells in the presence of different concentrations of RAD001. The number of CAR-positive CD3-positive T cells (black) and total T cells (gray) was assessed after 4 days of co-culture.

NALM6-luc tumors = experiment: NALM6-luc tumor growth under daily oral RAD001; format: in vivo, NSG mice; details: daily oral dosing of RAD001 alone
Protocol: NALM6-luc cells were grown and expanded in vitro in RPMI supplemented with 10% heat inactivated fetal bovine serum. The cells were then transferred to a 15 ml conical tube and washed twice with cold sterile PBS. NALM6-luc cells were then counted and resuspended at a concentration of 10×10^6 cells per milliliter of PBS. The cells were placed on ice and immediately (within one hour) implanted in the mice. NALM6-luc cells were injected intravenously via the tail vein in a 100 μl volume, for a total of 1×10^6 cells per mouse.
as §1

[3] = tested on: CD4+ and CD8+ CAR T cells; experiment: In vivo proliferation of humanized CD19 CART cells with and without RAD001; details: 0.003 mg/kg daily with huCTL019
Protocol: FIG. 49A and FIG. 49B show in vivo proliferation of humanized CD19 CART cells with and without RAD001 dosing. […] Circles denote PBS; squares denote huCTL019; triangles denote huCTL019 with 3 mg/kg RAD001; inverted triangles denote huCTL019 with 0.3 mg/kg RAD001; diamonds denote huCTL019 with 0.03 mg/kg RAD001; and circles denote huCTL019 with 0.003 mg/kg RAD001.

huCAR19 CAR T cells = experiment: CAR T cell expansion in vivo with RAD001 (FACS); set-up: species or system NSG mice; details: lowest doses of RAD001, daily oral
Protocol: Mice were administered 5×10^6 CAR T cells 7 days after tumor implantation. Cells were partially thawed in a 37 degree Celsius water bath and then completely thawed by the addition of 1 ml of cold sterile PBS to the tube containing the cells. The thawed cells were transferred to a 15 ml falcon tube and adjusted to a final volume of 10 mls with PBS. The cells were washed twice at 1000 rpm for 10 minutes each time and then counted on a hemocytometer. T cells were then resuspended at a concentration of 50×10^6 CAR T cells per ml of cold PBS and kept on ice until the mice were dosed. The mice were injected intravenously via the tail vein with 100 μl of the CAR T cells for a dose of 5×10^6 CAR T cells per mouse. Eight mice per group were treated either with 100 μl of PBS alone (PBS), or humanized CD19 CAR T cells.
as §1
Based on these doses, huCAR19 CAR T cells were dosed with and without RAD001 to determine the proliferative ability of these cells. The highest dose used was 3 mg/kg based on the levels of RAD001 in the blood 24 hours after dosing. […] Mice were monitored via FACS for T cell expansion.

CO[C@H]1C[C@@H]2CC[C@@H](C)[C@@](O)(O2)C(=O)C(=O)N2CCCC[C@H]2C(=O)O[C@H]([C@H](C)C[C@@H]2CC[C@@H](OCCO)[C@H](OC)C2)CC(=O)[C@H](C)/C=C(\C)[C@@H](O)[C@@H](OC)C(=O)[C@H](C)C[C@H](C)/C=C/C=C/C=C/1C [RAD001, everolimus]
proliferation of huCART19 cells (huCART19 cells; 0.0032 and 0.016 nM RAD001): higher than observed without the addition of RAD001 | expansion of huCART19 cells (huCART19 cells; less than 0.016 nM of RAD001): expanded | concentration at 24 h ([1]; blood, oral, 0.3 mg/kg, 24 hours after the final dose, read-out: concentration of RAD001): > 10 nM | concentration at 24 h ([1]; whole blood, 24 hours after dosing, 0.3 mg/kg oral, day 0 and day 14, read-out: RAD001 concentrations in the blood): > 10 nM | stability in the blood of tumor bearing mice ([1]; daily oral dosing): fairly stable | proliferation of CAR-expressing, transduced T cells [2]: enhanced | impact on the growth of NALM6-luc tumors (NALM6-luc tumors): did not have an impact | in vivo CAR T cell proliferation [3]: enhancement in CAR T cell proliferation | proliferation of the CAR T cells in vivo (huCAR19 CAR T cells): enhanced proliferation; also recorded: more evident and prolonged with the CD4^+ CAR T cells
